The values that follow are results of earlier work, collected in patent US5955321A, “Production and use of compositions comprising high concentrations of vitamin B12 activity” (Gist-Brocades, priority 1996, dated 1999).

For this series the following is noted: for stability to light: in isolated form.

On to 5'desoxyadenosylcobalamin, for which the “stability in aqueous solution” value is reported as “easily transformed to hydroxocobalamin” and the stability to light result is “unstable to light”.
For the compound `C/C1=C2/[N-][C@H]([C@H](CC(N)=O)[C@@]2(C)CCC(=O)NC[C@@H](C)OP(=O)([O-])O[C@H]2[C@@H](O)[C@@H](n3cnc4cc(C)c(C)cc43)O[C@@H]2CO)[C@]2(C)N=C(/C(C)=C3N=C(/C=C4N=C1[C@@H](CCC(N)=O)C\4(C)C)[C@@H](CCC(N)=O)[C@]\3(C)CC(N)=O)[C@@H](CCC(N)=O)[C@]2(C)CC(N)=O.[CH3-].[Co+3]` [methylcobalamin], the “stability in aqueous solution” value was “easily transformed to hydroxocobalamin” and the stability to light entry is recorded as “unstable to light”.
